pIC50: −log10 of the molar value.
biological target: influenza A virus minigenome (PB2, PB1, PA, NP proteins) (UniProt P04665); assay type: cell-based; conditions: read-out: RNP_ Hubei B IC50
Sequence (P04665 whole entry): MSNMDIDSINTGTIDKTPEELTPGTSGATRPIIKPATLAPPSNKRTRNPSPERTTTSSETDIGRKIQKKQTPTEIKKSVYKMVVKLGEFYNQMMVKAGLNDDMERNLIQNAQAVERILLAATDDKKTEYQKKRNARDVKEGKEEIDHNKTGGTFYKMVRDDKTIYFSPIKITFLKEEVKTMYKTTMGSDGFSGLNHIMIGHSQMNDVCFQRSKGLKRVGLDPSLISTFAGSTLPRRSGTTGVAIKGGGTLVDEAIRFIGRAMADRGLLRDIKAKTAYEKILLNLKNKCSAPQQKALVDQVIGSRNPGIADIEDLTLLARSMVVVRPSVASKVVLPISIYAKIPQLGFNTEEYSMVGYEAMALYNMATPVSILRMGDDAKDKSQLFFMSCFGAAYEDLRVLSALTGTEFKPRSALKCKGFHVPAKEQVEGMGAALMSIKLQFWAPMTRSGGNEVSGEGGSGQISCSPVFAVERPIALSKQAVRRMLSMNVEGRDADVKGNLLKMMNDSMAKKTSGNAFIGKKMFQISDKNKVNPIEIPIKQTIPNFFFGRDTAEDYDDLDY

Row | SMILES | pIC50
1 | NC(=O)c1cc(-c2ccc(OCC3COCc4c(C5CC5)nnn43)cc2)c(C(F)(F)F)[nH]c1=O (centres unmarked) [Example 381, 5-(4-((3-cyclopropyl-6,7-dihydro-4H-[1,2,3]triazolo[5,1-c][1,4]oxazin-7-yl)methoxy)phenyl)-2-oxo-6-(trifluoromethyl)-1,2-dihydropyridine-3-carboxamide] | 5.00 to 5.30
2 | COC[C@@]1(C)COC[C@@H](COc2ccc(-c3cc(C(N)=O)c(=O)[nH]c3C(F)(F)F)cc2)O1 [Example 405, 5-(4-(((2S,6S)-6-(methoxymethyl)-6-methyl-1,4-dioxan-2-yl)methoxy)phenyl)-2-oxo-6-(trifluoromethyl)-1,2-dihydropyridine-3-carboxamide] | 5.00 to 5.30
3 | CCN1CC(COc2ccc(-c3cc(C(N)=O)c(=O)[nH]c3C(F)(F)F)cc2)OC1=O (centres unmarked) [Example 234, 5-(4-((3-ethyl-2-oxooxazolidin-5-yl)methoxy)phenyl)-2-oxo-6-(trifluoromethyl)-1,2-dihydropyridine-3-carboxamide] | 4.30 to 4.60
4 | NC(=O)c1cc(-c2ccc(OCC3COC(CF)CO3)cc2)c(C(F)(F)F)[nH]c1=O (single isomer, unassigned) [Example 340, 5-(4-((5-(fluoromethyl)-1,4-dioxan-2-yl)methoxy)phenyl)-2-oxo-6-(trifluoromethyl)-1,2-dihydropyridine-3-carboxamide] | 5.00 to 5.30
5 | CC1(C2COCC(COc3ccc(-c4cc(C(N)=O)c(=O)[nH]c4C(F)(F)F)cc3)O2)CC1 (single isomer, unassigned) [Example 356, 5-(4-((6-(1-methylcyclopropyl)-1,4-dioxan-2-yl)methoxy)phenyl)-2-oxo-6-(trifluoromethyl)-1,2-dihydropyridine-3-carboxamide] | 5.00 to 5.30
6 | C[C@]1(COC2COC2)COC[C@@H](COc2ccc(-c3cc(C(N)=O)c(=O)[nH]c3C(F)(F)F)cc2)O1 [Example 427, 5-(4-(((2S,6R)-6-methyl-6-((oxetan-3-yloxy)methyl)-1,4-dioxan-2-yl)methoxy)phenyl)-2-oxo-6-(trifluoromethyl)-1,2-dihydropyridine-3-carboxamide] | 5.00 to 5.30
7 | NC(=O)c1cc(-c2ccc(OCc3cnc4ccccn34)cc2)c(C(F)(F)F)[nH]c1=O [Example 286, 5-(4-(imidazo[1,2-a]pyridin-3-ylmethoxy)phenyl)-2-oxo-6-(trifluoromethyl)-1,2-dihydropyridine-3-carboxamide] | 4.30 to 4.60
8 | Cc1ncc(COc2ccc(-c3cc(C(N)=O)c(=O)[nH]c3C(F)(F)F)cc2)s1 [Example 271, 5-(4-((2-methylthiazol-5-yl)methoxy)phenyl)-2-oxo-6-(trifluoromethyl)-1,2-dihydropyridine-3-carboxamide] | 4.30 to 4.60
9 | NC(=O)c1cc(-c2ccc(OCC3C[C@@H]4CC[C@H]3O4)cc2)c(C(F)(F)F)[nH]c1=O (single isomer, unassigned) [Example 314, 5-(4-((7-oxabicyclo[2.2.1]heptan-2-yl)methoxy)phenyl)-2-oxo-6-(trifluoromethyl)-1,2-dihydropyridine-3-carboxamide] | 4.60 to 5.00
10 | NC(=O)c1cc(-c2ccc(OCC3OCC4CCC3O4)cc2)c(C(F)(F)F)[nH]c1=O (single isomer, unassigned) [Example 318, 5-(4-((3,8-dioxabicyclo[3.2.1]octan-2-yl)methoxy)phenyl)-2-oxo-6-(trifluoromethyl)-1,2-dihydropyridine-3-carboxamide] | 5.00 to 5.30
11 | NC(=O)c1cc(-c2ccc(OCC3COCCOC3)cc2)c(C(F)(F)F)[nH]c1=O [Example 320, 5-(4-((1,4-dioxepan-6-yl)methoxy)phenyl)-2-oxo-6-(trifluoromethyl)-1,2-dihydropyridine-3-carboxamide] | 5.00 to 5.30
12 | CCN1CCOCC1COc1ccc(-c2cc(C(N)=O)c(=O)[nH]c2C(F)(F)F)cc1 (centres unmarked) [Example 249, 5-(4-((4-ethylmorpholin-3-yl)methoxy)phenyl)-2-oxo-6-(trifluoromethyl)-1,2-dihydropyridine-3-carboxamide] | 5.00 to 5.30
13 | C[C@H]1COC[C@H](COc2ccc(-c3cc(C(N)=O)c(=O)[nH]c3C(F)(F)F)cc2)O1 [Example 331, 5-(4-(((2R,6S)-6-methyl-1,4-dioxan-2-yl)methoxy)phenyl)-2-oxo-6-(trifluoromethyl)-1,2-dihydropyridine-3-carboxamide] | 4.60 to 5.00

same assay, conditions: read-out: RNP_Hubei B

Row | SMILES | pIC50
14 | Cc1noc(C)c1COc1ccc(-c2cc(C(N)=O)c(=O)[nH]c2C(F)(F)F)cc1 [Example 107, 5-(4-((3,5-dimethylisoxazol-4-yl)methoxy)phenyl)-2-oxo-6-(trifluoromethyl)-1,2-dihydropyridine-3-carboxamide] | 4.30 to 4.60
15 | N#Cc1ccc(COc2ccc(-c3cc(C(N)=O)c(=O)[nH]c3C(F)(F)F)cc2)cc1 [Example 77, 5-(4-((4-cyanobenzyl)oxy)phenyl)-2-oxo-6-(trifluoromethyl)-1,2-dihydropyridine-3-carboxamide] | 4.60 to 5.00
16 | NC(=O)c1cc(-c2ccc(OCc3cccc(N)c3)cc2)c(C(F)(F)F)[nH]c1=O [Example 57, 5-(4-((3-aminobenzyl)oxy)phenyl)-2-oxo-6-(trifluoromethyl)-1,2-dihydropyridine-3-carboxamide] | 5.00 to 5.30
17 | NC(=O)c1cc(-c2ccc(OCc3cncnc3)cc2)c(C(F)(F)F)[nH]c1=O [Example 82, 2-oxo-5-(4-(pyrimidin-5-ylmethoxy)phenyl)-6-(trifluoromethyl)-1,2-dihydropyridine-3-carboxamide] | 4.30 to 4.60
18 | NC(=O)c1cc(-c2ccc(OCC3COCC(C(F)F)O3)cc2)c(C(F)(F)F)[nH]c1=O (single isomer, unassigned) [Example 348, 5-(4-((6-(difluoromethyl)-1,4-dioxan-2-yl)methoxy)phenyl)-2-oxo-6-(trifluoromethyl)-1,2-dihydropyridine-3-carboxamide] | 5.00 to 5.30
19 | NC(=O)c1cc(-c2ccc(CN3CCOCC3)cc2)c(C(F)(F)F)[nH]c1=O [Example 1, 5-(4-(morpholinomethyl)phenyl)-2-oxo-6-(trifluoromethyl)-1,2-dihydropyridine-3-carboxamide] | 4.30 to 4.60
20 | NC(=O)c1cc(-c2ccc(CN3CCSCC3)cc2)c(C(F)(F)F)[nH]c1=O [Example 28, 2-oxo-5-(4-(thiomorpholinomethyl)phenyl)-6-(trifluoromethyl)-1,2-dihydropyridine-3-carboxamide] | 5.30 to 6.00
21 | NC(=O)c1cc(-c2ccc(OCc3ccnnc3)cc2)c(C(F)(F)F)[nH]c1=O [Example 84, 2-oxo-5-(4-(pyridazin-4-ylmethoxy)phenyl)-6-(trifluoromethyl)-1,2-dihydropyridine-3-carboxamide] | 4.30 to 4.60
22 | NC(=O)c1cc(-c2ccc(OCC3CN(C4COC4)CCCO3)cc2)c(C(F)(F)F)[nH]c1=O (centres unmarked) [Example 196, 5-(4-((4-(oxetan-3-yl)-1,4-oxazepan-2-yl)methoxy)phenyl)-2-oxo-6-(trifluoromethyl)-1,2-dihydropyridine-3-carboxamide] | 4.30 to 4.60
23 | CC(Oc1ccc(-c2cc(C(N)=O)c(=O)[nH]c2C(F)(F)F)cc1)c1cncnc1 (single isomer, unassigned) [Example 96, (R or S)-2-oxo-5-(4-(1-(pyrimidin-5-yl)ethoxy)phenyl)-6-(trifluoromethyl)-1,2-dihydropyridine-3-carboxamide] | 4.30 to 4.60

Source: patent US20240360082A1, “SUBSTITUTED PYRIDONE COMPOUNDS USEFUL TO TREAT ORTH[…]” (priority 2021, published 2024)
